The record followed here is patent US20190116835A1, “Sweetness and Taste Improvement of Steviol Glycoside or Mogroside Sweeteners with Flavonids” (The Coca-Cola Company, priority 2016, published 2019).

Assay [1] can be described thus: Taste evaluation by trained panelists: sweetness enhancement of Siamenoside I, compared against sucrose beverages. It is filed as in vivo, human. The following applies: beverage containing 150 ppm Siamenoside I in acidic water, no Test Mixture 1. On the procedure:
The ability of Text Mixture 1 to enhance the sweetness of Siamenoside I was evaluated.
(§1) Sample were prepared with the following ingredients:
(§2) Ingredients were added to water or water with Test Mixture 1 while stirring until solids were visibly dissolved and the sample was poured into a glass bottle and stored at 4° C.
The trained panelists then compared the taste and sweetness profiles of (i) the beverage containing 150 ppm Siamenoside I (Table 3) and (ii) the beverage containing 40 ppm Test Mixture 1 and 150 ppm Siamenoside I (Table 4) against the 6%, 8%, and 10% sucrose beverages (Table 5).
(§3) Bottles were removed from the refrigerator and about 25 ml of beverage was poured into 4 oz-plastic cups. Panelists were given mineral water to rinse their mouth before and between tastings. Unsalted crackers were also given to panelists to eat followed by rinsing their mouth with mineral water before tasting the next sample. Panelists were instructed to sip, evaluate the sweetness, and then spit the samples in cups provided for that purpose.

Assay [2] can be described thus: Taste evaluation by trained panelists: sweetness enhancement of Rebaudioside M, compared against sucrose beverages. It is filed as in vivo, human. The following applies: beverage containing 150 ppm Rebaudioside M in acidic water, no Test Mixture 1. On the procedure:
The ability of the following compounds to enhance the sweetness of Rebaudioside M was evaluated:
as §1, §2
Trained panelists compared the taste and sweetness profiles of (i) the beverage containing 150 ppm Rebaudioside M (Table 3) and (ii) the beverage containing 40 ppm Test Mixture 1 and 150 ppm Rebaudioside M (Table 4) against the 6%, 8%, and 10% sucrose beverages (Table 5).
as §3

Consider `C[C@H](CC[C@@H](O[C@@H]1O[C@H](CO[C@@H]2O[C@H](CO)[C@@H](O)[C@H](O)[C@H]2O)[C@@H](O)[C@H](O)[C@H]1O[C@@H]1O[C@H](CO)[C@@H](O)[C@H](O)[C@H]1O)C(C)(C)O)[C@H]1CC[C@@]2(C)[C@@H]3CC=C4[C@@H](CC[C@H](O[C@@H]5O[C@H](CO)[C@@H](O)[C@H](O)[C@H]5O)C4(C)C)[C@]3(C)[C@H](O)C[C@]12C` [Siamenoside I, siamenoside I], for which, in assay [1], the “sweetness, equivalent to sucrose beverages” value is given as 4%-6%.
For the compound `C=C1C[C@@]23CC[C@H]4[C@@](C)(CCC[C@@]4(C)C(=O)O[C@@H]4O[C@H](CO)[C@@H](O)[C@H](O[C@@H]5O[C@H](CO)[C@@H](O)[C@H](O)[C@H]5O)[C@H]4O[C@@H]4O[C@H](CO)[C@@H](O)[C@H](O)[C@H]4O)[C@@H]2CC[C@]1(O[C@@H]1O[C@H](CO)[C@@H](O)[C@H](O[C@@H]2O[C@H](CO)[C@@H](O)[C@H](O)[C@H]2O)[C@H]1O[C@@H]1O[C@H](CO)[C@@H](O)[C@H](O)[C@H]1O)C3` [Rebaudioside M, rebaudioside M], the “sweetness, as sweet as sucrose beverage” value in assay [2] is on record as 5-6 % sucrose.
